Test results as given in US8748433B2, “β3 adrenergic receptor agonists” (Merck Sharp & Dohme Corp., priority 2010, dated 2014).
Read-outs that look alike come from different tables or passages of the source.

How the values were obtained:
[1] = biological target: T1, human β3 adrenergic receptor (Homo sapiens, UniProt P13945); experiment: Functional assay: cAMP production in CHO cells stably transfected with cloned β3-adrenergic receptor (LANCE TR-FRET); type: cell-based
T1 construct: expressed in transfected cells; host or cells: CHO cells, stably transfected
Method: cAMP production in response to ligand is measured according to Barton, et al. (1991, Agonist-induced desensitization of D2 dopamine receptors in human Y-79 retinoblastoma cells. Mal. Pharmacol. v3229:650-658) modified as follows. cAMP production is measured using a homogenous time-resolved fluorescence resonance energy transfer immunoassay (LANCE™, Perkin Elmer) according to the manufacture's instructions. Chinese hamster ovary (CHO) cells, stably transfected with the cloned β-adrenergic receptor (β1, β2 or β3) are harvested after 3 days of subculturing. Harvesting of cells is done with Enzyme-free Dissociation. Media (Specialty Media). Cells are then counted and resuspended in assay buffer (Hank's Balanced salt solution supplemented with 5 mM HEPES, 0.1% BSA) containing a phosphodiesterase inhibitor (IBMX, 0.6 mM). The reaction is initiated by mixing 6,000 cells in 6 μL with 6 μL Alexa Fluor labeled cAMP antibody (LANCE™ kit) which is then added to an assay well containing 12 μL of compound (diluted in assay buffer to 2× final concentration). The reaction proceeds for 30 min at room temperature and is terminated by the addition of 24 μL detection buffer (LANCE™ kit). The assay plate is then incubated for 1 h at room temperature and time-resolved fluorescence measured on a Perkin Elmer Envision reader or equivalent. The unknown cAMP level is determined by comparing fluorescence levels to a cAMP standard curve.
The non-selective, full agonist β-adrenergic ligand isoproterenol is used at all three receptors to determine maximal stimulation. The human β3 adrenergic receptor (AR) selective ligand (S)—N-[4-[2-[[2-hydroxy-3-(4-hydroxyphenoxy)propyl]amino]ethyl]-phenyl]-4-iodobenzenesulfonamide is used as a control in all assays. Isoproterenol is titrated at a final concentration in the assay of 10^-10 M to 10-5 and the selective ligand (S)—N-[4-[2-[[2-hydroxy-3-(4-hydroxyphenoxy)propyl]amino]ethyl]phenyl]-4-iodobenzenesulfonamide is titrated at the β3 receptor at concentration of 10^-10 M to 10^-5 M. Unknown ligands are titrated at all 3β-adrenergic receptor subtypes at a final concentration in the assay of 10^-10 M to 10^-5 M to determine the EC50. The EC50 is defined as the concentration of compound that gives 50% activation of its own maximum. Data are analyzed using Microsoft Excel and Graphpad Prism or an internally developed data analysis software package.

β3AR = biological target: T2, β3AR (Rattus norvegicus, UniProt P26255); details: rats, intravenous administration, cited from earlier work
T2 construct: host or cells: live rats (in vivo, bladder)

[2] = Table 2, read-out: Human β3 agonist functional activity
[3] = Table 3, read-out: Human β3 agonist functional activity
[4] = Table 1, read-out: Human β3 agonist functional activity

T2 sequence (P26255 whole entry): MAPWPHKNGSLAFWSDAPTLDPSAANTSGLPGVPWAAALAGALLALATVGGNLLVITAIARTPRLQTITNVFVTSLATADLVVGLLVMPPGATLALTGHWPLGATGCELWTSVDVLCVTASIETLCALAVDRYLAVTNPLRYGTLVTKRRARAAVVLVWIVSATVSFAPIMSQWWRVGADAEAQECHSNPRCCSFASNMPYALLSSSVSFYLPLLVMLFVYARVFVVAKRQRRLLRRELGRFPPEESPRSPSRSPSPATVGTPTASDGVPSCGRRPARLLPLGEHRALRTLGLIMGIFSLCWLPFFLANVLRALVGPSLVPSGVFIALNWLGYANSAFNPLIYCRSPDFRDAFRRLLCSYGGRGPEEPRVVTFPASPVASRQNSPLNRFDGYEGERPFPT
T1 sequence (P13945 whole entry): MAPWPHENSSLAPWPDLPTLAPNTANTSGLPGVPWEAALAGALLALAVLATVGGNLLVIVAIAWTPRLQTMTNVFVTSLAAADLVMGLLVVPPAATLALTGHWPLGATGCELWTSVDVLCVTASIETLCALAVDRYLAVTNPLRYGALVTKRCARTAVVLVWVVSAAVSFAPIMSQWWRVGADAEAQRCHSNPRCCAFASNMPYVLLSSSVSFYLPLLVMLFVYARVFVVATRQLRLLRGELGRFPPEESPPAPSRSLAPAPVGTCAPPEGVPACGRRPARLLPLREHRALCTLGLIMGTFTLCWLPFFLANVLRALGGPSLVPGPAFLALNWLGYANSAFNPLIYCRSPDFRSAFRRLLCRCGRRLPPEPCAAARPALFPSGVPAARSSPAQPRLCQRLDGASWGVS

Structure (SMILES)	EC50 [1, 4] [nM]	also measured
Cc1nc2c(s1)CCC2c1nc2ccc(C[C@@H]3CC[C@H]([C@H](O)c4ccccc4)N3)cc2n1C (single isomer, unassigned) [Example 43]		EC50 [1, 2]: 1000 to 3000 nM
Cc1nc2c(s1)CCC2c1nc2ccc(C[C@@H]3CC[C@H]([C@H](O)c4ccccc4)N3)cc2n1C (single isomer, unassigned) [Example 44]		EC50 [1, 2]: 1000 to 3000 nM
Cc1nc2c(s1)CCC2c1nc2cc(C[C@@H]3CC[C@H]([C@H](O)c4ccccc4)N3)ccc2n1C (single isomer, unassigned) [Example 45]		EC50 [1, 3]: 101 to 1000 nM
Cc1nc2c(s1)CCC2c1nc2cc(C[C@@H]3CC[C@H]([C@H](O)c4ccccc4)N3)ccc2n1C (single isomer, unassigned) [Example 46]		EC50 [1, 3]: 1000 to 3000 nM
C[C@H](Cc1ccc2c(c1)OC(C(=O)[O-])(C(=O)[O-])O2)NC[C@H](O)c1cccc(Cl)c1.[Na+].[Na+] [CL316243]		bladder capacity (β3AR; cystometric studies): increases bladder capacity; micturition interval (β3AR; cystometric studies): prolongation of micturition interval; residual urine volume (β3AR; cystometric studies): without increasing residual urine volume; bladder pressure (β3AR): reduces bladder pressure
C[C@@H](c1nc2ccc(CC3CC[C@H]([C@H](O)c4ccccc4)N3)cc2[nH]1)n1cccnc1=O (stereo partly drawn) [Example 1, 1-{(1S)-[6-({(2S,5R)-5-[(R)-Hydroxy(phenyl)methyl]pyrrolidin-2-yl}methyl)-1H-benzimidazol-2-yl]ethyl}pyrimidin-2(1H)-one]	11 to 100	
CCc1nc2ccccc2n1CCc1nc2ccc(C[C@@H]3CC[C@H]([C@H](O)c4ccccc4)N3)cc2[nH]1 [Example 5]	101 to 1000	
OC(c1ccccc1)C1CCC(Cc2ccc3nc(CCCn4cccn4)[nH]c3c2)N1 (centres unmarked) [Example 6]	101 to 1000	
O[C@H](c1ccccc1)[C@H]1CC[C@@H](Cc2ccc3nc(CCn4ncc5ccccc54)[nH]c3c2)N1 [Example 7]	11 to 100	
Cc1nc(Cc2nc3ccc(C[C@@H]4CC[C@H]([C@H](O)c5ccccc5)N4)cc3[nH]2)cs1 [Example 8]	101 to 1000	
O[C@H](c1ccccc1)[C@H]1CC[C@@H](Cc2ccc3nc(CCn4ccnc4-c4ccccc4)[nH]c3c2)N1 [Example 10]	101 to 1000	
OC(c1ccccc1)C1CCC(Cc2ccc3nc(CCc4cnn(-c5ccccc5)c4)[nH]c3c2)N1 (centres unmarked) [Example 11]	101 to 1000	
Cc1nn(-c2ccccc2)c(C)c1CCc1nc2ccc(C[C@@H]3CC[C@H]([C@H](O)c4ccccc4)N3)cc2[nH]1 [Example 12]	101 to 1000	
OC(c1ccccc1)C1CCC(Cc2ccc3nc(CCn4cnc5ccccc54)[nH]c3c2)N1 (centres unmarked) [Example 13]	101 to 1000	
Cc1cc2ncn(CCc3nc4ccc(C[C@@H]5CC[C@H]([C@H](O)c6ccccc6)N5)cc4[nH]3)c2cc1C [Example 14]	101 to 1000	
O[C@H](c1ccccc1)[C@H]1CC[C@@H](Cc2ccc3nc(CCn4cncn4)[nH]c3c2)N1 [Example 15]	101 to 1000	
O[C@H](c1ccccc1)[C@H]1CC[C@@H](Cc2ccc3nc(C4CCc5ccnn54)[nH]c3c2)N1 (some centres unmarked) [Example 16]	101 to 1000	
O=C1c2ccccc2C(=O)N1Cc1nc2ccc(C[C@@H]3CC[C@H]([C@H](O)c4ccccc4)N3)cc2[nH]1 [Example 17]	101 to 1000	
O=c1ccncn1Cc1nc2ccc(C[C@@H]3CC[C@H]([C@H](O)c4ccccc4)N3)cc2[nH]1 [Example 19]	101 to 1000	

Structure (SMILES)	EC50 [1, 4] [nM]	also measured
Cc1nc(Cc2nc3ccc(C[C@@H]4CC[C@H]([C@H](O)c5ccccc5)N4)cc3[nH]2)c(C)s1 [Example 20]	101 to 1000	
Cc1nc2c(s1)CCC2c1nc2ccc(C[C@@H]3CC[C@H]([C@H](O)c4ccccc4)N3)cc2[nH]1 (some centres unmarked) [Example 21]	11 to 100	
O[C@H](c1ccccc1)[C@H]1CC[C@@H](Cc2ccc3nc(C4CCc5scnc54)[nH]c3c2)N1 (some centres unmarked) [Example 24]	11 to 100	
OC(c1cccnc1)C1CCC(Cc2ccc3nc(C4CCc5scnc54)[nH]c3c2)N1 (centres unmarked) [Example 26]	101 to 1000	
CC(c1cscn1)c1nc2ccc(C[C@@H]3CC[C@H]([C@H](O)c4cccnc4)N3)cc2[nH]1 (some centres unmarked) [Example 27]	101 to 1000	
C[C@@H](c1nc2ccc(C[C@@H]3CC[C@H]([C@H](O)c4cccnc4)N3)cc2[nH]1)n1cccnc1=O [Example 28]	101 to 1000	
Cc1nc2c(s1)CCC2c1nc2ccc(C[C@@H]3CC[C@H]([C@H](O)c4cccnc4)N3)cc2[nH]1 (some centres unmarked) [Example 29]	101 to 1000	
O=C1c2ccccc2C(=O)N1Cc1nc2ccc(C[C@@H]3CC[C@H]([C@H](O)c4cccnc4)N3)cc2[nH]1 [Example 31]	101 to 1000	
CS(=O)(=O)c1ccccc1-c1nc2ccc(C[C@@H]3CC[C@H]([C@H](O)c4cccnc4)N3)cc2[nH]1 [Example 32]	11 to 100	
CS(=O)(=O)c1ccc(-c2nc3ccc(C[C@@H]4CC[C@H]([C@H](O)c5cccnc5)N4)cc3[nH]2)cc1 [Example 33]	101 to 1000	
CS(=O)(=O)c1cccc(-c2nc3ccc(C[C@@H]4CC[C@H]([C@H](O)c5cccnc5)N4)cc3[nH]2)c1 [Example 34]	11 to 100	
O=C(O)c1ccccc1-c1nc2ccc(C[C@@H]3CC[C@H]([C@H](O)c4cccnc4)N3)cc2[nH]1 [Example 35]	101 to 1000	
O=C(O)c1cccc(-c2nc3ccc(C[C@@H]4CC[C@H]([C@H](O)c5cccnc5)N4)cc3[nH]2)c1 [Example 36]	101 to 1000	
O=C(O)c1ccc(-c2nc3ccc(C[C@@H]4CC[C@H]([C@H](O)c5cccnc5)N4)cc3[nH]2)cc1 [Example 37]	11 to 100	
O[C@H](c1cccnc1)[C@H]1CC[C@@H](Cc2ccc3nc(-c4c(F)cccc4F)[nH]c3c2)N1 [Example 38]	101 to 1000	
OC(c1cccnc1)C1CCC(Cc2ccc3nc(-c4ccccc4C(F)(F)F)[nH]c3c2)N1 (centres unmarked) [Example 39]	11 to 100	
Oc1cccc(-c2nc3ccc(C[C@@H]4CC[C@H]([C@H](O)c5cccnc5)N4)cc3[nH]2)n1 [Example 40]	1000 to 3000	
O[C@H](c1cccnc1)[C@H]1CC[C@@H](Cc2ccc3nc(-c4ccccc4-c4ncc[nH]4)[nH]c3c2)N1 [Example 41]	101 to 1000	
O[C@H](c1cccnc1)[C@H]1CC[C@@H](Cc2ccc3nc(C4CCc5ccnn54)[nH]c3c2)N1 (some centres unmarked) [Example 42]	101 to 1000	
